Measured values reported in US20090202573A1, “POLYMERIC CONJUGATES CONTAINING POSITIVELY-CHARGED MOIETIES” (ENZON PHARMACEUTICALS, INC., priority 2006, published 2009).
d = 2'-deoxy (DNA); r = 2'-OH (RNA)

How the values were obtained:
Survivin mRNA [1] = test: Survivin mRNA downregulation in DU145 cell model (prostate cancer) (Example 68); format: cell-based; conditions: Example 68: DU145 cells, FIG. 19
From the text: DU145 cells were transfected with the same compounds used in Example 67.

Survivin mRNA [2] = test: Survivin mRNA downregulation in A549 cell model, RT-PCR (Examples 67, 69, 70, 71, 71 bis); format: cell-based, human
Protocol: This study was conducted to determine the effects of the positively charged polymers on Survivin mRNA expression. A549 human lung cells were transfected with each of compounds 33b-I-R4, 33b-I-R5 and 33a-I-R3 in concentrations of 1000 nM, 200 nM, 40 nM, 8 nM and 1.6 nM. […] Compound 33a-I-R3 ([RGD-TATC-S—S]7-^20K8arm PEG-SS-antisense Survivin LNA) includes the TAT peptide and antisense Survivin LNA. The Survivin mRNA expression in the A549 cells treated with each of the compounds was measured by RT-PCR one day after the treatment.
A549 human lung cancer cells were transfected with each of compound 33a-I-R2 and the naive antisense Survivin LNA. Compound 33a-I-R2 ([(Arg)9C—S—S]7-^20K8arm PEG-S—S-antisense Survivin LNA) includes seven polymer arm terminals connected to C(Arg)9 and one arm terminal connected to the antisense Survivin LNA via the intracellular releasable disulfide bond. The naive oligonucleotides (antisense Survivin LNA) were also transfected with the transfection agent lipofectamine.
A549 cells were transfected with each of compound 59 and the antisense Survivin LNA dimer. The dimer of the antisense Survivin LNA modified with a C6—SH tail (antisense Survivin LNA-C6—S—S—C6-antisense Survivin LNA) was also transfected with the transfection agent. Compound 59 contains a hydrazone-based releasable linker.
This study was conducted to determine whether the positively charged polymers containing a targeting agent is as effective as the positively charged polymers without a targeting agent and thus the polymers containing the targeting agent can be utilized for targeted delivery. A549 cells were transfected with each of compounds 33a-I-R1 (TATC-S—S)7-^20K8arm PEG-S—S-antisense Survivin LNA) and 33a-I-R3 ([RGD-TATC-S—S]7-^20K8arm PEG-S—S-antisense Survivin LNA). In compounds 33a-I-R1 and 33a-I-R3, seven polymer arm terminals are connected to C-TAT and C-TAT-RGD, respectively. The cells were also transfected with the antisense Survivin LNA modified with a SH—C6 tail with or without the transfection agent. […] This feature of the positively charged polymers is beneficial to target agent directed delivery of oligonucleotide therapeutics.
A549 human lung cancer cells were transfected with each of compound 33a-I-R1 (TATC-S—S)7-^20K8arm PEG-S—S-antisense Survivin LNA), compound 33a-II-R1 (TATC-S—S)7-^20K8arm PEG-S—S-scrambled Survivin LNA) and the native antisense Survivin LNA. Compound […] corresponds to compound […] except in that it includes mismatching nucleotides within the antisense Survivin LNA (scrambled Survivin LNA: 5′-s^mCsGs^mCsAsgsaststsasgsasasAs^mCs^mCst-3′). The naive antisense Survivin LNA was also transfected with the transfection agent.

BCL2 mRNA = BCL2 mRNA downregulation, RT-PCR, A431 cells (Example 66); format: cell-based, human; conditions: without transfection agent, FIG. 17
Protocol: This study was conducted to determine whether the oligonucleotides uptaken by cancer cells downregulate specific gene expression involved in cancer. A431 cells were transfected with native oligonucleotides and compound 23a-I-R1 without transfection agent. The positively charged polymer conjugate contains TAT and BCL2 siRNA.

[3] = Example 71: A549 cells, polymers with or without targeting agent (RGD), FIG. 22

## [RGD-TATC-S—S]7-^20K8arm PEG-SS-antisense Survivin LNA [Compound 33a-I-R3]
Survivin mRNA [1]
  Survivin mRNA expression: significant down-regulation of Survivin mRNA expression
Survivin mRNA [2]; Example 67: A549 cells, 1000 nM to 1.6 nM, RT-PCR one day after treatment, without transfection agent, FIG. 18
  Survivin mRNA expression: significantly downregulated Survivin mRNA expression
Survivin mRNA [2]; Example 67: A549 cells, 1000, 200, 40, 8 and 1.6 nM, FIG. 18
  dose dependence of Survivin mRNA downregulation: dose-dependent
Survivin mRNA [2]; [3]
  Survivin mRNA expression: downregulated Survivin mRNA expression

## [(Arg)9C—S—S]7-^20K8arm PEG-S—S-antisense Survivin LNA [Compound 33a-I-R2]
Survivin mRNA [2]; Example 69: A549 cells, without the transfection agent, FIG. 20
  Survivin mRNA expression: significantly downregulated Survivin mRNA expression

## native Bcl2 siRNA: unconjugated antisense Bcl2 siRNA (SEQ ID NOs: 4 and 5) (chain 1 GCAUGCGGCCUCUGUUUGATT; chain 2 UCAAACAGAGGCCGCAUGCTT; sugars from the 5' end r19 d2, backbone not given here)
BCL2 mRNA
  BCL2 mRNA expression: downregulated BCL2 mRNA expression dose-dependently

## (TATC-S—S)7-^20K8arm PEG-S—S-antisense Survivin LNA [Compound 33a-I-R1]
Survivin mRNA [1]
  Survivin mRNA expression: similarly observed
Survivin mRNA [2]; [3]
  Survivin mRNA expression: downregulated Survivin mRNA expression
Survivin mRNA [2]; second Example 71: A549 cells, antisense versus scrambled (mismatching) Survivin LNA, FIG. 23
  Specific inhibition of Survivin mRNA expression: significantly inhibited Survivin mRNA expression
